Measurements taken from PubChem BioAssay AID1963436 (Molecular Pharmacology Branch, DTP, NCI, 2024).

Tested on: OVCAR-5 complex spheroid (HUVEC/MSC), viability % T/C
Test: Anticancer human tumor OVCAR-5 cell line growth inhibition [Asc];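 note: spheroids exposed to agents for 7 days before readout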;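 for viability, T/C: 100% = DMSO vehicle-treated wells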
Conditions: for IC50: curve of first compound; for viability, T/C: stronger effect = lower value
Procedure, shortened: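 Complex solid-tumor spheroids incorporating human endothelial and mesenchymal stem cells received single agents or combinations over half-log dilution ranges anchored to clinical Cmax.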

[1] = second compound 0.1 µM, first compound 0.0316 µM
[2] = second compound 0.1 µM, first compound 0.1 µM
[3] = second compound 0.1 µM, first compound 0.316 µM
[4] = second compound 0.1 µM, first compound 1 µM
[5] = second compound 0.1 µM, first compound 3.16 µM
[6] = second compound 0.1 µM, first compound 10 µM
[7] = second compound 0.316 µM, first compound 0.0316 µM
[8] = second compound 0.316 µM, first compound 0.1 µM
[9] = second compound 0.316 µM, first compound 0.316 µM
[10] = second compound 0.316 µM, first compound 1 µM
[11] = second compound 0.316 µM, first compound 3.16 µM
[12] = second compound 0.316 µM, first compound 10 µM
[13] = second compound 1 µM, first compound 0.0316 µM
[14] = second compound 1 µM, first compound 0.1 µM
[15] = second compound 1 µM, first compound 0.316 µM
[16] = second compound 1 µM, first compound 1 µM
[17] = second compound 1 µM, first compound 3.16 µM
[18] = second compound 1 µM, first compound 10 µM
[19] = second compound 3.16 µM, first compound 0.0316 µM
[20] = second compound 3.16 µM, first compound 0.1 µM
[21] = second compound 3.16 µM, first compound 0.316 µM
[22] = second compound 3.16 µM, first compound 1 µM
[23] = second compound 3.16 µM, first compound 3.16 µM
[24] = second compound 3.16 µM, first compound 10 µM
[25] = second compound 10 µM, first compound 0.0316 µM
[26] = second compound 10 µM, first compound 0.1 µM
[27] = second compound 10 µM, first compound 0.316 µM
[28] = second compound 10 µM, first compound 1 µM
[29] = second compound 10 µM, first compound 3.16 µM
[30] = second compound 10 µM, first compound 10 µM

| Compound | IC50 (second compound 0.1 µM) [µM] | IC50 (second compound 0.316 µM) [µM] | IC50 (second compound 1 µM) [µM] | IC50 (second compound 3.16 µM) [µM] | IC50 (second compound 10 µM) [µM] | viability, T/C [1] [%] | viability, T/C [2] [%] | viability, T/C [3] [%] | viability, T/C [4] [%] | viability, T/C [5] [%] | viability, T/C [6] [%] | viability, T/C [7] [%] | viability, T/C [8] [%] | viability, T/C [9] [%] | viability, T/C [10] [%] | viability, T/C [11] [%] | viability, T/C [12] [%] | viability, T/C [13] [%] | viability, T/C [14] [%] | viability, T/C [15] [%] | also measured |
| --- | --- | --- | --- | --- | --- | --- | --- | --- | --- | --- | --- | --- | --- | --- | --- | --- | --- | --- | --- | --- | --- |
| C#Cc1c(F)ccc2cc(O)cc(-c3ncc4c(N5CC6CCC(C5)N6)nc(OCC56CCCN5CC(F)C6)nc4c3F)c12 (stereo not given) + Cc1c(S(C)(=O)=O)c(-c2cc(F)cc(N3CCN(c4ccc(NS(=O)(=O)c5ccc(NC(CCN6CCC(C(=O)OCCCP(=O)(O)O)CC6)CSc6ccccc6)c(S(=O)(=O)C(F)(F)F)c5)cc4)CC3)c2)c(-c2ccc(Cl)cc2)n1C(C)C | 5.34 | 4.45 | 3.72 | 2.81 | 3.73 | 96.7 | 107 | 102 | 78.7 | 69.3 | 30.3 | 91.8 | 98.2 | 87.2 | 80.1 | 61.1 | 24.5 | 89.7 | 107 | 90.1 | viability, T/C [16]: 75.9%; viability, T/C [17]: 56.3%; viability, T/C [18]: 21.7%; viability, T/C [19]: 84.9%; viability, T/C [20]: 99.9%; viability, T/C [21]: 96.1%; viability, T/C [22]: 69%; viability, T/C [23]: 49.8%; viability, T/C [24]: 12.9%; viability, T/C [25]: 133%; viability, T/C [26]: 116%; viability, T/C [27]: 118%; viability, T/C [28]: 88.5%; viability, T/C [29]: 56.6%; viability, T/C [30]: 12.7% |
| C=C(F)C(=O)N1CCN(c2nc(OCC3CCCN3C)nc3c2CCN(c2cccc4cccc(Cl)c24)C3)CC1CC#N (stereo not given) + Cc1c(S(C)(=O)=O)c(-c2cc(F)cc(N3CCN(c4ccc(NS(=O)(=O)c5ccc(NC(CCN6CCC(C(=O)OCCCP(=O)(O)O)CC6)CSc6ccccc6)c(S(=O)(=O)C(F)(F)F)c5)cc4)CC3)c2)c(-c2ccc(Cl)cc2)n1C(C)C | 0.799 | 0.587 | 0.649 | 0.561 | 0.643 | 88.7 | 96.8 | 79.9 | 43.7 | 1.2 | 0.31 | 93.5 | 98 | 78.3 | 25.4 | 1.91 | 0.12 | 81.5 | 89 | 83.3 | viability, T/C [16]: 29.9%; viability, T/C [17]: 0.65%; viability, T/C [18]: 0.74%; viability, T/C [19]: 90%; viability, T/C [20]: 92.3%; viability, T/C [21]: 80.1%; viability, T/C [22]: 19.6%; viability, T/C [23]: 0.82%; viability, T/C [24]: 0.14%; viability, T/C [25]: 111%; viability, T/C [26]: 131%; viability, T/C [27]: 106%; viability, T/C [28]: 15.1%; viability, T/C [29]: 0.46%; viability, T/C [30]: 0.21% |
